Measured values reported in PubChem BioAssay (NCI).
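Growth conditions: 96-well plates. Treatment: test compound, 48 hours, 5 concentrations. Analysis: linear interpolation between bracketing concentrations; unreached endpoints set to highest concentration. GI50 = concentration required for 50% inhibition of growth. TGI denotes the concentration required for complete inhibition of growth.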

Experiments:
Test in all cases: NCI tumour cell line growth inhibition, 48 h
NCI-H23 lung = test system: NCI-H23 lung
OVCAR-8 ovarian = test system: OVCAR-8 ovarian
TK-10 renal = test system: TK-10 renal
NCI-H522 lung = test system: NCI-H522 lung
A498 renal = test system: A498 renal
SR leukemia = test system: SR leukemia
UACC-62 melanoma = test system: UACC-62 melanoma
CCRF-CEM leukemia = test system: CCRF-CEM leukemia
ACHN renal = test system: ACHN renal
MDA-MB-435 = test system: MDA-MB-435
HCC-2998 colon = test system: HCC-2998 colon
HCT-116 colon = test system: HCT-116 colon
SK-MEL-28 melanoma = test system: SK-MEL-28 melanoma
LOX IMVI melanoma = test system: LOX IMVI melanoma
PC-3 prostate = test system: PC-3 prostate
OVCAR-4 ovarian = test system: OVCAR-4 ovarian
MDA-MB-231 breast = test system: MDA-MB-231 breast
SF-268 CNS = test system: SF-268 CNS
HS 578T breast = test system: HS 578T breast
A549 NSCLC = test system: A549 NSCLC
IGROV1 ovarian = test system: IGROV1 ovarian
HOP-92 NSCLC = test system: HOP-92 NSCLC
K-562 leukemia = test system: K-562 leukemia
NCI/ADR-RES ovarian = test system: NCI/ADR-RES ovarian
UO-31 renal = test system: UO-31 renal
RPMI-8226 leukemia = test system: RPMI-8226 leukemia
BT-549 breast = test system: BT-549 breast
HCT-15 colon = test system: HCT-15 colon
SK-OV-3 ovarian = test system: SK-OV-3 ovarian
786-0 renal = test system: 786-0 renal
DU-145 prostate = test system: DU-145 prostate
SW-620 colon = test system: SW-620 colon
SNB-19 CNS = test system: SNB-19 CNS
SN12C renal = test system: SN12C renal
T-47D breast = test system: T-47D breast
HOP-62 NSCLC = test system: HOP-62 NSCLC
SF-539 CNS = test system: SF-539 CNS
CAKI-1 renal = test system: CAKI-1 renal
MALME-3M melanoma = test system: MALME-3M melanoma
EKVX NSCLC = test system: EKVX NSCLC
SNB-75 CNS = test system: SNB-75 CNS
KM12 colon = test system: KM12 colon
UACC-257 melanoma = test system: UACC-257 melanoma
M14 melanoma = test system: M14 melanoma
SK-MEL-2 melanoma = test system: SK-MEL-2 melanoma
HT29 colon = test system: HT29 colon
HL-60(TB) leukemia = test system: HL-60(TB) leukemia
COLO 205 colon = test system: COLO 205 colon
OVCAR-3 ovarian = test system: OVCAR-3 ovarian
SF-295 CNS = test system: SF-295 CNS
RXF 393 renal = test system: RXF 393 renal
NCI-H460 lung = test system: NCI-H460 lung
MCF7 breast = test system: MCF7 breast
OVCAR-5 ovarian = test system: OVCAR-5 ovarian
SK-MEL-5 melanoma = test system: SK-MEL-5 melanoma
U251 CNS = test system: U251 CNS
MOLT-4 leukemia = test system: MOLT-4 leukemia
NCI-H226 lung = test system: NCI-H226 lung

CCOC(=O)c1c(NCC(=O)Nc2cccc([N+](=O)[O-])c2)sc2c1CCCC2
GI50 (NCI-H23 lung): 217 nM
TGI (NCI-H23 lung): 722 nM
GI50 (OVCAR-8 ovarian): 351 nM
TGI (OVCAR-8 ovarian): > 100000 nM
GI50 (TK-10 renal): 256 nM
TGI (TK-10 renal): 782 nM
GI50 (NCI-H522 lung): 226 nM
TGI (NCI-H522 lung): 739 nM
GI50 (A498 renal): 194 nM
TGI (A498 renal): 392 nM
GI50 (SR leukemia): 276 nM
GI50 (UACC-62 melanoma): 173 nM
TGI (UACC-62 melanoma): 380 nM
GI50 (CCRF-CEM leukemia): 253 nM
GI50 (ACHN renal): 281 nM
TGI (ACHN renal): 795 nM
GI50 (MDA-MB-435): 328 nM
TGI (MDA-MB-435): 1090 nM
GI50 (HCC-2998 colon): 207 nM
TGI (HCC-2998 colon): 499 nM
GI50 (HCT-116 colon): 263 nM
TGI (HCT-116 colon): 805 nM
GI50 (SK-MEL-28 melanoma): 235 nM
TGI (SK-MEL-28 melanoma): 596 nM
GI50 (LOX IMVI melanoma): 195 nM
TGI (LOX IMVI melanoma): 405 nM
GI50 (PC-3 prostate): 250 nM
TGI (PC-3 prostate): 726 nM
GI50 (OVCAR-4 ovarian): 338 nM
TGI (OVCAR-4 ovarian): 3730 nM
GI50 (MDA-MB-231 breast): 280 nM
TGI (MDA-MB-231 breast): 1010 nM
GI50 (SF-268 CNS): 354 nM
TGI (SF-268 CNS): 1690 nM
GI50 (HS 578T breast): 264 nM
TGI (HS 578T breast): 773 nM
GI50 (A549 NSCLC): 301 nM
TGI (A549 NSCLC): 2680 nM
GI50 (IGROV1 ovarian): 236 nM
TGI (IGROV1 ovarian): 738 nM
GI50 (HOP-92 NSCLC): 209 nM
TGI (HOP-92 NSCLC): 696 nM
GI50 (K-562 leukemia): 278 nM
GI50 (NCI/ADR-RES ovarian): 267 nM
TGI (NCI/ADR-RES ovarian): 762 nM
GI50 (UO-31 renal): 198 nM
TGI (UO-31 renal): 583 nM
GI50 (RPMI-8226 leukemia): 310 nM
TGI (RPMI-8226 leukemia): 1060 nM
GI50 (BT-549 breast): 211 nM
TGI (BT-549 breast): 605 nM
GI50 (HCT-15 colon): 265 nM
TGI (HCT-15 colon): 1330 nM
GI50 (SK-OV-3 ovarian): 294 nM
TGI (SK-OV-3 ovarian): 856 nM
GI50 (786-0 renal): 271 nM
TGI (786-0 renal): 840 nM
GI50 (DU-145 prostate): 316 nM
TGI (DU-145 prostate): 1360 nM
GI50 (SW-620 colon): 315 nM
TGI (SW-620 colon): 1210 nM
GI50 (SNB-19 CNS): 306 nM
TGI (SNB-19 CNS): 1080 nM
GI50 (SN12C renal): 256 nM
TGI (SN12C renal): 793 nM
GI50 (T-47D breast): 728 nM
TGI (T-47D breast): 3120 nM
GI50 (HOP-62 NSCLC): 416 nM
TGI (HOP-62 NSCLC): 1990 nM
GI50 (SF-539 CNS): 242 nM
TGI (SF-539 CNS): 644 nM
GI50 (CAKI-1 renal): 251 nM
TGI (CAKI-1 renal): 735 nM
GI50 (MALME-3M melanoma): 181 nM
TGI (MALME-3M melanoma): 407 nM
GI50 (EKVX NSCLC): 718 nM
TGI (EKVX NSCLC): 3640 nM
GI50 (SNB-75 CNS): 214 nM
TGI (SNB-75 CNS): 1690 nM
GI50 (KM12 colon): 315 nM
TGI (KM12 colon): 966 nM
GI50 (UACC-257 melanoma): 401 nM
TGI (UACC-257 melanoma): 2130 nM
GI50 (M14 melanoma): 183 nM
TGI (M14 melanoma): 361 nM
GI50 (SK-MEL-2 melanoma): 436 nM
TGI (SK-MEL-2 melanoma): 2290 nM
GI50 (HT29 colon): 273 nM
TGI (HT29 colon): 1060 nM
GI50 (HL-60(TB) leukemia): 280 nM
TGI (HL-60(TB) leukemia): 4200 nM
GI50 (COLO 205 colon): 274 nM
TGI (COLO 205 colon): 774 nM
GI50 (OVCAR-3 ovarian): 289 nM
TGI (OVCAR-3 ovarian): 770 nM
GI50 (SF-295 CNS): 310 nM
TGI (SF-295 CNS): 1180 nM
GI50 (RXF 393 renal): 182 nM
TGI (RXF 393 renal): 360 nM
GI50 (NCI-H460 lung): 265 nM
TGI (NCI-H460 lung): 707 nM
GI50 (MCF7 breast): 272 nM
TGI (MCF7 breast): 974 nM
GI50 (OVCAR-5 ovarian): 270 nM
TGI (OVCAR-5 ovarian): 779 nM
GI50 (SK-MEL-5 melanoma): 182 nM
TGI (SK-MEL-5 melanoma): 354 nM
GI50 (U251 CNS): 284 nM
TGI (U251 CNS): 979 nM
GI50 (MOLT-4 leukemia): 246 nM
TGI (MOLT-4 leukemia): 4160 nM
GI50 (NCI-H226 lung): 194 nM
TGI (NCI-H226 lung): 471 nM
